Data published in PubChem BioAssay AID2060898 (Molecular Pharmacology Branch, DTP, NCI, 2025).

System: 616215-338-R-J1-PDC complex spheroid viability
Test: Anticancer human tumor 616215-338-R-J1-PDC patient-derived colon adenocarcinoma cell line growth inhibition [RAS]
Conditions: for IC50: curve of first compound; for viability, T/C: stronger effect = lower value
Method in brief: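 Agents were tested in combination matrices in half-log decrements from a top concentration at or near clinical Cmax (10 microM if undetermined). Targets were multi-cell spheroids of tumour lines plus HUVEC and MSC stromal cells.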
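Note: spheroids exposed to agents for seven days before viability readout.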
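Throughout, for viability, T/C: 100% = DMSO vehicle control viability.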

`C=CC(=O)Nc1cc(Nc2nccc(-c3cn(C)c4ccccc34)n2)c(OC)cc1N(C)CCN(C)C` + C#Cc1c(F)ccc2cc(O)cc(-c3ncc4c(N5CC6CCC(C5)N6)nc(OCC56CCCN5CC(F)C6)nc4c3F)c12 was tested, and the IC50 (second compound 0.0316 µM) was > 1000 nM, the IC50 (second compound 0.1 µM) was > 1000 nM and the IC50 (second compound 0.316 µM) was 846 nM. It also gave an IC50 (second compound 1 µM) of 587 nM, an IC50 (second compound 3.16 µM) of 150 nM and an IC50 (second compound 10 µM) of 150 nM. The viability, T/C (second compound 0.0316 µM, first compound 0.00316 µM) was 101%, the viability, T/C (second compound 0.0316 µM, first compound 0.01 µM) was 109% and the viability, T/C (second compound 0.0316 µM, first compound 0.0316 µM) was 101%. It also gave a viability, T/C (second compound 0.0316 µM, first compound 0.1 µM) of 106%, a viability, T/C (second compound 0.0316 µM, first compound 0.316 µM) of 98.1% and a viability, T/C (second compound 0.0316 µM, first compound 1 µM) of 68.4%. For the same molecule, the viability, T/C (second compound 0.1 µM, first compound 0.00316 µM) was 106%, the viability, T/C (second compound 0.1 µM, first compound 0.01 µM) was 108% and the viability, T/C (second compound 0.1 µM, first compound 0.0316 µM) was 104%. The viability, T/C (second compound 0.1 µM, first compound 0.1 µM) was 110%, the viability, T/C (second compound 0.1 µM, first compound 0.316 µM) was 115% and the viability, T/C (second compound 0.1 µM, first compound 1 µM) was 74.5%. For the same molecule, the viability, T/C (second compound 0.316 µM, first compound 0.00316 µM) was 114%, the viability, T/C (second compound 0.316 µM, first compound 0.01 µM) was 110% and the viability, T/C (second compound 0.316 µM, first compound 0.0316 µM) was 109%. It also gave a viability, T/C (second compound 0.316 µM, first compound 0.1 µM) of 109%, a viability, T/C (second compound 0.316 µM, first compound 0.316 µM) of 93.2% and a viability, T/C (second compound 0.316 µM, first compound 1 µM) of 42.7%. It also gave a viability, T/C (second compound 1 µM, first compound 0.00316 µM) of 112%, a viability, T/C (second compound 1 µM, first compound 0.01 µM) of 109% and a viability, T/C (second compound 1 µM, first compound 0.0316 µM) of 117%. The viability, T/C (second compound 1 µM, first compound 0.1 µM) was 82.4%, the viability, T/C (second compound 1 µM, first compound 0.316 µM) was 75.5% and the viability, T/C (second compound 1 µM, first compound 1 µM) was 31.4%. The viability, T/C (second compound 3.16 µM, first compound 0.00316 µM) was 104%, the viability, T/C (second compound 3.16 µM, first compound 0.01 µM) was 124% and the viability, T/C (second compound 3.16 µM, first compound 0.0316 µM) was 79.8%. It also gave a viability, T/C (second compound 3.16 µM, first compound 0.1 µM) of 59.6%, a viability, T/C (second compound 3.16 µM, first compound 0.316 µM) of 42.2% and a viability, T/C (second compound 3.16 µM, first compound 1 µM) of 35.9%. It also gave a viability, T/C (second compound 10 µM, first compound 0.00316 µM) of 67.2%, a viability, T/C (second compound 10 µM, first compound 0.01 µM) of 71.2% and a viability, T/C (second compound 10 µM, first compound 0.0316 µM) of 62.2%. For the same molecule, the viability, T/C (second compound 10 µM, first compound 0.1 µM) was 56.5%, the viability, T/C (second compound 10 µM, first compound 0.316 µM) was 39.4% and the viability, T/C (second compound 10 µM, first compound 1 µM) was 21.7%.

With `CC(Nc1ccc2c(c1)OCCn1cc(N3C(=O)OCC3C(F)F)nc1-2)C(N)=O` (centres undefined) + CCn1c(-c2cccnc2C(C)OC)c2c3cc(ccc31)N1CCOC(CC(NC(=O)C(C(C)C)N(C)C(=O)C3(F)CCN(C(=O)C#CC(C)(C)N(C)C)CC3)C(=O)N3CCCC(N3)C(=O)OCC(C)(C)C2)C1 the IC50 (second compound 0.000949 µM) was > 10000 nM, the IC50 (second compound 0.003 µM) was > 10000 nM and the IC50 (second compound 0.00949 µM) was > 10000 nM. The IC50 (second compound 0.03 µM) was > 10000 nM, the IC50 (second compound 0.0949 µM) was > 10000 nM and the IC50 (second compound 0.3 µM) was 9650 nM. The viability, T/C (second compound 0.000949 µM, first compound 0.0316 µM) was 106%, the viability, T/C (second compound 0.000949 µM, first compound 0.1 µM) was 112% and the viability, T/C (second compound 0.000949 µM, first compound 0.316 µM) was 109%. The viability, T/C (second compound 0.000949 µM, first compound 1 µM) was 101%, the viability, T/C (second compound 0.000949 µM, first compound 3.16 µM) was 93.2% and the viability, T/C (second compound 0.000949 µM, first compound 10 µM) was 91.9%. For the same molecule, the viability, T/C (second compound 0.003 µM, first compound 0.0316 µM) was 107%, the viability, T/C (second compound 0.003 µM, first compound 0.1 µM) was 116% and the viability, T/C (second compound 0.003 µM, first compound 0.316 µM) was 103%. For the same molecule, the viability, T/C (second compound 0.003 µM, first compound 1 µM) was 102%, the viability, T/C (second compound 0.003 µM, first compound 3.16 µM) was 99.7% and the viability, T/C (second compound 0.003 µM, first compound 10 µM) was 84.2%. For the same molecule, the viability, T/C (second compound 0.00949 µM, first compound 0.0316 µM) was 97.5%, the viability, T/C (second compound 0.00949 µM, first compound 0.1 µM) was 116% and the viability, T/C (second compound 0.00949 µM, first compound 0.316 µM) was 109%. For the same molecule, the viability, T/C (second compound 0.00949 µM, first compound 1 µM) was 114%, the viability, T/C (second compound 0.00949 µM, first compound 3.16 µM) was 91.5% and the viability, T/C (second compound 0.00949 µM, first compound 10 µM) was 78.7%. It also gave a viability, T/C (second compound 0.03 µM, first compound 0.0316 µM) of 95.4%, a viability, T/C (second compound 0.03 µM, first compound 0.1 µM) of 109% and a viability, T/C (second compound 0.03 µM, first compound 0.316 µM) of 98.9%. The viability, T/C (second compound 0.03 µM, first compound 1 µM) was 108%, the viability, T/C (second compound 0.03 µM, first compound 3.16 µM) was 96.4% and the viability, T/C (second compound 0.03 µM, first compound 10 µM) was 78.3%. For the same molecule, the viability, T/C (second compound 0.0949 µM, first compound 0.0316 µM) was 123%, the viability, T/C (second compound 0.0949 µM, first compound 0.1 µM) was 106% and the viability, T/C (second compound 0.0949 µM, first compound 0.316 µM) was 103%. It also gave a viability, T/C (second compound 0.0949 µM, first compound 1 µM) of 92%, a viability, T/C (second compound 0.0949 µM, first compound 3.16 µM) of 106% and a viability, T/C (second compound 0.0949 µM, first compound 10 µM) of 90%. The viability, T/C (second compound 0.3 µM, first compound 0.0316 µM) was 102%, the viability, T/C (second compound 0.3 µM, first compound 0.1 µM) was 87.6% and the viability, T/C (second compound 0.3 µM, first compound 0.316 µM) was 94.5%. The viability, T/C (second compound 0.3 µM, first compound 1 µM) was 68.1%, the viability, T/C (second compound 0.3 µM, first compound 3.16 µM) was 103% and the viability, T/C (second compound 0.3 µM, first compound 10 µM) was 48.7%.
